Experimental data reported in ChEMBL document CHEMBL5532656, “Novel ligustilide derivatives target quorum sensing system LasR/LasB and relieve inflammatory response against Pseudomonas aeruginosa infection” (Eur J Med Chem, 2024).
Active and inactive are the calls of the source. The rule behind the calls is not given here.

Columns and labels:
Mus musculus [1] = experiment: Anti-inflammatory activity against LPS-induced acute lung injury mouse model assessed as reduction in IL-1 beta mRNA expression at 1 to 2 mg/kg, po preincubated for 4 hrs followed by LPS stimulation and measured after 6 hrs; type: functional, organism-based; conditions: dose 1-2 mg/kg, time 10.0 hrs
Mus musculus [2] = experiment: Anti-inflammatory activity against LPS-induced acute lung injury mouse model assessed as reduction in COX-2 mRNA expression at 1 to 2 mg/kg, po preincubated for 4 hrs followed by LPS stimulation and measured after 6 hrs; type: functional, organism-based; conditions: dose 1-2 mg/kg, time 10.0 hrs
RAW264.7 [3] = experiment: Inhibition of JNK signaling in mouse RAW264.7 cells assessed as reduction in LPS induced JNK phosphorylation by Western blot analysis; type: cell-based
Mus musculus [4] = experiment: Anti-inflammatory activity against LPS-induced acute lung injury mouse model assessed as downregulation of IL-6 level administered as po dose preincubated for 4 hrs followed by LPS stimulation and measured after 6 hrs by ELISA method; type: functional, organism-based; conditions: dose 1-2 mg/kg, time 10.0 hrs
[5] = Toxicity in BALB/c mouse assessed as effect on body weight at 2 to 4 mg/kg, IG; type: organism-based; conditions: in vivo, po, dose 2-4 mg/kg
RAW264.7 [6] = experiment: Antiinflammatory activity in LPS-induced mouse RAW264.7 cells assessed as inhibition of IL-6 production pretreated for 3 hrs followed by LPS stimulation and measured after 24 hrs by ELISA method; type: functional, cell-based
RAW264.7 [7] = experiment: Antiinflammatory activity in mouse RAW264.7 cells assessed as reduction in IL-6 mRNA expression at 2.5 to 10 uM by RT-PCR analysis; type: functional, cell-based; conditions: dose 2.5-10 µM
RAW264.7 [8] = experiment: Antiinflammatory activity in LPS-induced mouse RAW264.7 cells assessed as inhibition of TNF-alpha production pretreated for 3 hrs followed by LPS stimulation and measured after 24 hrs by ELISA method; type: functional, cell-based
[9] = Cytotoxicity against African green monkey Vero cells assessed as reduction in cell viability at <20 uM measured after 24 hrs by MTT assay; type: toxicity, cell-based; conditions: chlorocebus sabaeus
Mus musculus [10] = experiment: Anti-inflammatory activity against LPS-induced acute lung injury mouse model assessed as reduction in myeloperoxidase activity at 1 to 2 mg/kg, po preincubated for 4 hrs followed by LPS stimulation and measured after 6 hrs by spectrophotometer analysis; type: functional, organism-based; conditions: dose 1-2 mg/kg, time 10.0 hrs
[11] = Toxicity in BALB/c mouse assessed as effect on animal health at 2 to 4 mg/kg, IG; type: organism-based; conditions: in vivo, po, dose 2-4 mg/kg
[12] = Inhibition of quorum sensing system in Pseudomonas aeruginosa PAO1-lasB-gfp at 10 uM relative to control
Mus musculus [13] = experiment: Protection against LPS-induced acute lung injury mouse model assessed as inhibition of neutrophil infiltration at 1 to 2 mg/kg, po preincubated for 4 hrs followed by LPS stimulation and measured after 6 hrs by H and E staining based analysis; type: functional, organism-based; conditions: dose 1-2 mg/kg, time 10.0 hrs
RAW264.7 [14] = experiment: Antiinflammatory activity in LPS-induced mouse RAW264.7 cells assessed as decrease in NLRP3 expression level pretreated for 3 hrs followed by LPS stimulation and measured after 24 hrs by Western blot analysis; type: functional, cell-based; conditions: dose 1.25-10 µmol/L, time 27.0 hrs
Pseudomonas aeruginosa [15] = experiment: Anti-biofilm activity against Pseudomonas aeruginosa PAO1 assessed as suppression of biofilm formation at 1.25 to 10 uM incubated for 24 hrs by PI staining based confocal fluorescence microscopy based analysis; type: functional, organism-based; conditions: dose 1.25-10 µM
[16] = Toxicity in BALB/c mouse assessed as effect on spleen at 2 to 4 mg/kg, PO measured after 7 days by H and E staining based analysis; type: organism-based; conditions: in vivo, 168 h, dose 2-4 mg/kg, time 7 day
[17] = Toxicity in BALB/c mouse assessed as effect on heart at 2 to 4 mg/kg, PO measured after 7 days by H and E staining based analysis; type: organism-based; conditions: in vivo, 168 h, dose 2-4 mg/kg, time 7 day
RAW264.7 [18] = experiment: Antiinflammatory activity in LPS-induced mouse RAW264.7 cells assessed as decrease in COX-2 expression level pretreated for 3 hrs followed by LPS stimulation and measured after 24 hrs by Western blot analysis; type: functional, cell-based; conditions: dose 1.25-10 µmol/L, time 27.0 hrs
RAW264.7 [19] = experiment: Inhibition of ERK signaling in mouse RAW264.7 cells assessed as reduction in LPS induced ERK phosphorylation by Western blot analysis; type: cell-based
RAW264.7 [20] = experiment: Cytotoxicity against mouse RAW264.7 cells assessed as reduction in cell viability at 50 uM measured after 24 hrs by MTT assay; type: functional, cell-based
[21] = Toxicity in BALB/c mouse assessed as effect on liver at 2 to 4 mg/kg, PO measured after 7 days by H and E staining based analysis; type: organism-based; conditions: in vivo, 168 h, dose 2-4 mg/kg, time 7 day
Danio rerio = organism: Danio rerio; experiment: Inhibition of macrophage migration in 4 days post fertilized Zebra fish AB embryo assessed as reduction in green fluorescence at 10 micromol/L measured after 4 to 6 hrs by fluorescence microscope based analysis; type: functional, organism-based; conditions: dose 10.0 µmol/L, time […]
RAW264.7 [22] = experiment: Inhibition of LPS-induced ROS production in mouse RAW264.7 cells by DCFH-DA staining based fluorescence method; type: functional, cell-based
[23] = Toxicity in BALB/c mouse assessed as effect on kidney at 2 to 4 mg/kg, PO measured after 7 days by H and E staining based analysis; type: organism-based; conditions: in vivo, 168 h, dose 2-4 mg/kg, time 7 day
Mus musculus [24] = experiment: Anti-inflammatory activity against LPS-induced acute lung injury mouse model assessed as reduction in iNOS mRNA expression at 1 to 2 mg/kg, po preincubated for 4 hrs followed by LPS stimulation and measured after 6 hrs; type: functional, organism-based; conditions: dose 1-2 mg/kg, time 10.0 hrs
Mus musculus [25] = experiment: Anti-inflammatory activity against LPS-induced acute lung injury mouse model assessed as downregulation of IL-1 beta level administered as po dose preincubated for 4 hrs followed by LPS stimulation and measured after 6 hrs by ELISA method; type: functional, organism-based; conditions: dose 1-2 mg/kg, time 10.0 hrs
RAW264.7 [26] = experiment: Antiinflammatory activity in mouse RAW264.7 cells assessed as reduction in COX-2 mRNA expression at 2.5 to 10 uM by RT-PCR analysis; type: functional, cell-based; conditions: dose 2.5-10 µM
RAW264.7 [27] = experiment: Antiinflammatory activity in LPS-induced mouse RAW264.7 cells assessed as inhibition of IkappaB-alpha expression pretreated for 3 hrs followed by LPS stimulation and measured after 24 hrs by Western blot analysis; type: functional, cell-based; conditions: dose 1.25-10 µmol/L, time 27.0 hrs
RAW264.7 [28] = experiment: Cytotoxicity against mouse RAW264.7 cells assessed as reduction in cell viability at <20 uM measured after 24 hrs by MTT assay; type: functional, cell-based
RAW264.7 [29] = experiment: Antiinflammatory activity in mouse RAW264.7 cells assessed as reduction in TNF alpha mRNA expression at 2.5 to 10 uM by RT-PCR analysis; type: functional, cell-based; conditions: dose 2.5-10 µM
RAW264.7 [30] = experiment: Antiinflammatory activity in LPS-induced mouse RAW264.7 cells assessed as inhibition of IL-1 beta production pretreated for 3 hrs followed by LPS stimulation and measured after 24 hrs by ELISA method; type: functional, cell-based
Erythrocyte [31] = experiment: Hemolytic activity in mouse erythrocytes assessed as hemolysis at 0.625 to 10 micromol/L measured after 4 hrs by microplate reader method; type: toxicity, cell-based; conditions: dose 0.625-10 µmol/L
[32] = Inhibition of quorum sensing system in Pseudomonas aeruginosa PAO1-lasB-gfp assessed as reduction in GFP expression incubated for 14 hrs
Erythrocyte [33] = experiment: Hemolytic activity in human erythrocytes assessed as hemolysis at 0.625 to 10 micromol/L measured after 4 hrs by microplate reader method; type: toxicity, cell-based; conditions: dose 0.625-10 µmol/L
Pseudomonas aeruginosa [34] = experiment: Anti-biofilm activity against Pseudomonas aeruginosa PAO1 assessed as reduction in biofilm formation incubated for 24 hrs by crystal violet staning based analysis; type: functional, organism-based

CCCCC1(O)C2=C(C=CCC2)C(=O)N1Cc1ccc(C(F)(F)F)cc1 (configuration not stated)
Activity (Mus musculus [1]): Active
Activity (Mus musculus [2]): Active
inhibition (RAW264.7 [3]): Active
Activity (Mus musculus [4]): Dose-Dependent Effect
Activity [5]: Toxic
IC50 (RAW264.7 [6]): 2.61 µM
Activity (RAW264.7 [7]): Active
IC50 (RAW264.7 [8]): 6.2 µM
Activity [9]: Non-Toxic
Activity (Mus musculus [10]): Active
Activity [11]: Non-Toxic
inhibition [12]: 51.6%
Activity (Mus musculus [13]): Active
Activity (RAW264.7 [14]): Dose-Dependent Effect
Activity (Pseudomonas aeruginosa [15]): Dose-Dependent Effect
Activity [16]: Non-Toxic
Activity [17]: Non-Toxic
Activity (RAW264.7 [18]): Dose-Dependent Effect
inhibition (RAW264.7 [19]): Active
Activity (RAW264.7 [20]): Active
Activity [21]: Non-Toxic
inhibition (Danio rerio): Active
IC50 (RAW264.7 [22]): 1.44 µM
Activity [23]: Non-Toxic
Activity (Mus musculus [24]): Active
Activity (Mus musculus [25]): Dose-Dependent Effect
Activity (RAW264.7 [26]): Active
Activity (RAW264.7 [27]): Dose-Dependent Effect
Activity (RAW264.7 [28]): inactive
Activity (RAW264.7 [29]): Active
IC50 (RAW264.7 [30]): 18.2 µM
Activity (Erythrocyte [31]): Toxic
IC50 [32]: 8.7 µM
inhibition ([32]; dose 0.625-10 µM): Dose-Dependent Effect
Activity (Erythrocyte [33]): Toxic
IC50 (Pseudomonas aeruginosa [34]; PAO1, 24 h): 7.4 µM
Activity (Pseudomonas aeruginosa [34]; dose 0.625-10 µM): Dose-Dependent Effect
